Assay [1] has as its target T1, PotF_Prox (Escherichia coli, UniProt P31133, D247S/D39E/S38T).
T1 construct: without the N-terminal signal peptide; made in house; host or cells: E. coli BL21 (DE3)
T1 sequence (P31133 27-370 S38T/D39E/D247S): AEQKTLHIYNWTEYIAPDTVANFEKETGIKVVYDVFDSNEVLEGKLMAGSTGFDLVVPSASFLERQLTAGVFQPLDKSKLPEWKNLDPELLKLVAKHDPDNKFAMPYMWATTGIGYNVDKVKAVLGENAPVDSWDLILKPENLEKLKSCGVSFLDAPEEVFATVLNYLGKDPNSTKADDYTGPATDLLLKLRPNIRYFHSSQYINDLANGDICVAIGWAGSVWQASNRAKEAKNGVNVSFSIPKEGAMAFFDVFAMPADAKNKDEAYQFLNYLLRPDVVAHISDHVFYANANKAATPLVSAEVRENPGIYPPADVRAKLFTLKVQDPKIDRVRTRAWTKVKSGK
In words: ITC, PotF_Prox (S38T, D39E, D247S). It is filed as binding. As to conditions: 293 K, 50 mM Tris pH 8, 300 mM NaCl, biological triplicates. The protocol: (§1) Ligands were always freshly prepared in the exact same buffer as was used for the size exclusion run. Samples were degassed, and temperature was equilibrated using a degassing station (TA Instruments). About 400 μl protein sample of different concentrations (Table S5) depending on affinity was transferred into the sample cell of a nanoITC (TA Instruments), and 50 μl of about tenfold concentrated ligand solution was loaded into the injection needle. Multiple injection measurements were carried out at 293 K, 300 rpm stirring rate, and 250 s spacings between each 2 μl injection. The heat quantity past injection was determined by integration of the measured peaks. Every protein–ligand combination was measured as biological triplicate. Subtraction of heat of dilution measurements, peak integration, and one site binding fits were done with NanoAnalyze (TA Instruments). Reported errors are the errors between fits of the measured triplicates.
(In general: In ITC the heat of successive injections is recorded.)

Assay [2] concerns the target T2, PotF/D (Escherichia coli, UniProt P31133, A182D/D247S/D39E/F276W/L348Q/S38T/S87Y).
T2 construct: without the N-terminal signal peptide; made in house; host or cells: E. coli BL21 (DE3)
T2 sequence (P31133 27-370 S38T/D39E/S87Y/A182D/D247S/F276W/L348Q): T1 sequence (P31133 27-370 S38T/D39E/D247S) with S61Y, A156D, F250W, L322Q
Nature of the assay: ITC, PotF/D (PotF_SPD; seven PotD binding pocket residues grafted onto PotF). The following applies: 293 K. The protocol: as §1

Assay [3] has as its target T3, PotF/D–E39D–Y87S (Escherichia coli, UniProt P31133, A182D/D247S/F276W/L348Q/S38T).
T3 construct: without the N-terminal signal peptide; made in house; host or cells: E. coli BL21 (DE3)
T3 sequence (P31133 27-370 S38T/A182D/D247S/F276W/L348Q): T1 sequence (P31133 27-370 S38T/D39E/D247S) with E13D, A156D, F250W, L322Q
In words: ITC, PotF/D–E39D–Y87S. The class given is binding. As to conditions: 293 K. Here is the method: as §1

The target of assay [4] is T4, PotF/D–E39D–F88L (Escherichia coli, UniProt P31133, A182D/D247S/F276W/F88L/L348Q/S38T/S87Y).
T4 construct: without the N-terminal signal peptide; made in house; host or cells: E. coli BL21 (DE3)
T4 sequence (P31133 27-370 S38T/S87Y/F88L/A182D/D247S/F276W/L348Q): T1 sequence (P31133 27-370 S38T/D39E/D247S) with E13D, S61Y, F62L, A156D, F250W, L322Q
Nature of the assay: ITC, PotF/D–E39D–F88L. The class given is binding. As to conditions: 293 K. The protocol:
as §1

For assay [5], the target named is T5, PotF/D–E39D–Y87S–F88Y (Escherichia coli, UniProt P31133, A182D/D247S/F276W/F88Y/L348Q/S38T).
T5 construct: without the N-terminal signal peptide; made in house; host or cells: E. coli BL21 (DE3)
T5 sequence (P31133 27-370 S38T/F88Y/A182D/D247S/F276W/L348Q): T1 sequence (P31133 27-370 S38T/D39E/D247S) with E13D, F62Y, A156D, F250W, L322Q
Nature of the assay: ITC, PotF/D–E39D–Y87S–F88Y. The class given is binding. As to conditions: 293 K. The protocol: as §1

[6] abbreviates: ITC, 50 mM Tris pH 8, 300 mM NaCl, biological triplicates.

Residue numbers refer to the chain shown, from its start. Several values for one entry are separate records, joined by “and”; a condition that tells them apart may be missing. Identical values can stand only once.

In the case of `NCCCCN` [PUT, putrescine], the KD entry in assay [1] is “abolishes association”.

By Kd is commonly meant a measure of binding affinity in units of concentration. For `NCCCCNCCCN` [SPD, spermidine], the n in assay [2] (ITC binding stoichiometry) was determined as 0.94 ± 0.02; in assay [3] (ITC binding stoichiometry), 0.98 ± 0.01; in assay [4] (ITC binding stoichiometry) it was 1.03 ± 0.01; in assay [5] (ITC binding stoichiometry), 0.99 ± 0.02. In addition, the ΔG in assay [2] (ITC) is -5.94 ± 0.04 kcal/mol; in assay [3] (ITC), -6.74 ± 0.06 kcal/mol; in assay [4] (ITC), -6.71 ± 0.03 kcal/mol; in assay [5] (ITC), -7.09 ± 0.15 kcal/mol. Besides, the ΔH was -9.30 ± 0.20 kcal/mol in assay [2] (ITC), -6.56 ± 0.13 kcal/mol in assay [3] (ITC), -12.31 ± 0.11 kcal/mol in assay [4] (ITC) and -7.81 ± 0.21 kcal/mol in assay [5] (ITC). Moreover, the “−TΔS” value in assay [2] (ITC) is 3.36 ± 0.24 kcal/mol; in assay [3] (ITC) it was -0.18 ± 0.19 kcal/mol; in assay [4] (ITC), 5.60 ± 0.13 kcal/mol; in assay [5] (ITC), 0.71 ± 0.32 kcal/mol. Further, the Kd in assay [2] (setting [6]) is ~37 µM and 37.3 µM; in assay [3] (setting [6]) it was 9.4 µM and 9.44 µM; in assay [4] (setting [6]) it was ~9.9 µM and 9.9 µM; in assay [5] (setting [6]), ~5.3 µM and 5.3 µM and 5.32 µM.

These data come from paper PMC8666671, “Fine-tuning spermidine binding modes in the putrescine binding protein PotF” (The Journal of Biological Chemistry, 2021).
